Data published in US10294207B2, “Pyrazole derivatives as TNIK, IKKϵ and TBK1 inhibitor and pharmaceutical composition comprising same” (GREEN CROSS CORPORATION, priority 2015, dated 2019).

Key:
IKKε = molecular target: T1, IKKε (Homo sapiens, UniProt Q14164); test: IKKε inhibition, ADP-Glo Kinase Assay; type: biochemical; conditions: luminometer
T1 construct: purchased Invitrogen PR8031B
T1 sequence (Q14164 1-716): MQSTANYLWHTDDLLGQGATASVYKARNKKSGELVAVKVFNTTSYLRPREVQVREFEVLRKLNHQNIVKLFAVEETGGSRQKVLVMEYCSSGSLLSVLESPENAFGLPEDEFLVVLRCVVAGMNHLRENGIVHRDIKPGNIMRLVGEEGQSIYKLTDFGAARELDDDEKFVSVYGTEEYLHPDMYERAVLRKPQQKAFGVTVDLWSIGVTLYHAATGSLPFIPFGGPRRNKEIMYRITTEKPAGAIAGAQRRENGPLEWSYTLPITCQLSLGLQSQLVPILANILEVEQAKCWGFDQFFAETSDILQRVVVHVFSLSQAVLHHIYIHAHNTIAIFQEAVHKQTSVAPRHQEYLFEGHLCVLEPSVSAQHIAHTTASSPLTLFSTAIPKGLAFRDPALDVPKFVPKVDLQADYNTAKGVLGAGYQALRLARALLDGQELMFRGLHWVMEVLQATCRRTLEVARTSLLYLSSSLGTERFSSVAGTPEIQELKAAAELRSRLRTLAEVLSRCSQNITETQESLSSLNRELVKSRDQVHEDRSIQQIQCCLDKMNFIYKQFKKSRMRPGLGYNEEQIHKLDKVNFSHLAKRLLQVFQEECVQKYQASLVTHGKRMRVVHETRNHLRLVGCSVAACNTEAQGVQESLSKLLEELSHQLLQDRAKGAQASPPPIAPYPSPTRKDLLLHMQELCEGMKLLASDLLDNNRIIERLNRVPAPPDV
Description: Inhibition activities on TNIK, IKKε and TBK1 were evaluated using the compounds of Examples 1 to 254.
The inhibition activities on TNIK, IKKε and TBK1 were measured by a luminometer, TNIK/IKKε/TBK1 Kinase Enzyme System (Promega, Ca# V4158; Invitrogen, PR8031B, Promega, Ca# V3991) and ADP-Glo Kinase Assay using ADP-Glo™ Kinase Analysis Kit (Promega, Ca# V9101) and a kinase reaction buffer [40 mM Tris(pH 7.5), 20 mM MgCl2, 0.1 mg/mL BSA] in accordance with the manufacturer's protocol.

TBK1 = molecular target: T2, TBK1 (Homo sapiens, UniProt Q9UHD2); test: TBK1 inhibition, ADP-Glo Kinase Assay; type: biochemical; conditions: luminometer
T2 construct: purchased Promega V3991
T2 sequence (Q9UHD2 1-729): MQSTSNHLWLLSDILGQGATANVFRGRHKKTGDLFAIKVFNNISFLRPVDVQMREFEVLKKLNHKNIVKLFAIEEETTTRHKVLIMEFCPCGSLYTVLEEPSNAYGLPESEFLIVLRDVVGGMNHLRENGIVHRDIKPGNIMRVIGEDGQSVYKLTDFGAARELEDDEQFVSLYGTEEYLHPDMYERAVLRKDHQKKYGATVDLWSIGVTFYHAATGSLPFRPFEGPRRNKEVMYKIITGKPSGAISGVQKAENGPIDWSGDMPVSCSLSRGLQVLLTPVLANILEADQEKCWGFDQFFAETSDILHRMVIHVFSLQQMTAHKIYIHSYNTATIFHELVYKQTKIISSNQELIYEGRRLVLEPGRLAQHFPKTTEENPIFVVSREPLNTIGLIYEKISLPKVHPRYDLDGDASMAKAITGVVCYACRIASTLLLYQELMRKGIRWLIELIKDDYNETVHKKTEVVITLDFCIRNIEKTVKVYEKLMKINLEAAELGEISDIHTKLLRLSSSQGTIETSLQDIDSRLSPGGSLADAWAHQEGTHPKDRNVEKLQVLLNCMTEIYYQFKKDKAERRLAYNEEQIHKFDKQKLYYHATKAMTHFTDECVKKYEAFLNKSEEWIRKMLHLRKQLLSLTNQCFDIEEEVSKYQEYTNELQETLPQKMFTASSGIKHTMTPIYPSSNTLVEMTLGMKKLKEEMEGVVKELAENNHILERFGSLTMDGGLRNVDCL
Summary of the method: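 Each recombinant kinase enzyme system was run per the manufacturer's protocol in 40 mM Tris pH 7.5, 20 mM MgCl2 and 0.1 mg/mL BSA. Kinase activity was detected as ADP formation by ADP-Glo luminescence.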

Row | SMILES | IC50 (IKKε) [µM] | IC50 (TBK1) [µM]
1 | CN1CCN(c2ccc(C(=O)Nc3n[nH]c4ccc(C(=O)NC(c5ccccc5)C5CC5)cc34)cc2)CC1 (stereo not drawn) [Example 197, N-(Cyclopropyl(phenyl)methyl)-3-(4-(4-methylpiperazin-1-yl)benzamido)-1H-indazole-5-carboxamide] | 0.042 | 0.027
2 | O=C(Nc1n[nH]c2ccc(C(=O)NC3(c4cccs4)CC3)cc12)c1ccc(F)cc1 [Example 15, 3-(4-Fluorobenzamido)-N-(1-(thiophen-2-yl)cyclopropyl)-1H-indazole-5-carboxamide] | 0.055 | 0.025
3 | Cc1ccc(CNC(=O)c2ccc3[nH]nc(NC(=O)c4ccc(N5CCN(C)CC5)cc4)c3c2)s1 [Example 61, 3-(4-(4-Methylpiperazin-1-yl)benzamido)-N-((5-methylthiophen-2-yl)methyl)-1H-indazole-5-carboxamide] | 0.23 | 0.056
4 | CC(CCO)NC(=O)c1ccc2[nH]nc(NC(=O)c3ccc(N4CCN(C)CC4)cc3)c2c1 (stereo not drawn) [Example 93, N-(4-Hydroxybutan-2-yl)-3-(4-(4-methylpiperazin-1-yl)benzamido)-1H-indazole-5-carboxamide] | 1.04 | 0.19
5 | O=C(NCc1cccs1)c1ccc2[nH]nc(NC(=O)c3ccc(N4CCOCC4)cc3)c2c1 [Example 148, 3-(4-Morpholinobenzamido)-N-(thiophen-2-ylmethyl)-1H-indazole-5-carboxamide] | 0.031 | 0.004
6 | CC(NC(=O)c1ccc2[nH]nc(NC(=O)c3ccc(N4CCN(C)CC4)cc3)c2c1)c1cccnc1 (stereo not drawn) [Example 53, 3-(4-(4-Methylpiperazin-1-yl)benzamido)-N-(1-(pyridin-3-yl)ethyl)-1H-indazole-5-carboxamide] | > 10 | 0.021
7 | CCC(NC(=O)c1ccc2[nH]nc(NC(=O)c3ccc(N4CCC(OC)CC4)cc3)c2c1)c1cccs1 (stereo not drawn) [Example 110, 3-(4-(4-methoxypiperidin-1-yl)benzamido)-N-(1-(thiophen-2-yl)propyl)-1H-indazole-5-carboxamide] | 0.036 | 0.0072
8 | CN(C)CCCNc1ccc(C(=O)Nc2n[nH]c3ccc(C(=O)NCc4cccs4)cc23)cc1 [Example 154, 3-(4-((3-(Dimethylamino)propyl)amino)benzamido)-N-(thiophen-2-ylmethyl)-1H-indazole-5-carboxamide] | 0.13 | 0.0086
9 | CC(NC(=O)c1ccc2[nH]nc(NC(=O)c3ccc(N4CCN(C)CC4)cc3)c2c1)c1ccncc1 (stereo not drawn) [Example 133, 3-(4-(4-Methylpiperazin-1-yl)benzamido)-N-(1-(pyridin-4-yl)ethyl)-1H-indazole-5-carboxamide] | 0.053 | 0.028
10 | CN1CCN(c2ccc(C(=O)Nc3n[nH]c4ccc(C(=O)NCc5c[nH]nn5)cc34)cc2)CC1 [Example 94, N-((1H-1,2,3-Triazol-4-yl)methyl)-3-(4-(4-methylpiperazin-1-yl)benzamido)-1H-indazole-5-carboxamide] | 1.59 | 0.24
11 | CN1CCN(c2ccc(C(=O)Nc3n[nH]c4ccc(C(=O)NCc5ccccn5)cc34)cc2)CC1 [Example 85, 3-(4-(4-Methylpiperazin-1-yl)benzamido)-N-(pyridin-2-ylmethyl)-1H-indazole-5-carboxamide bis(2,2,2-trifluoroacetate)] | 1.63 | 0.16
12 | C[C@@H]1CN(c2ccc(C(=O)Nc3n[nH]c4ccc(C(=O)NC5(c6ccccc6)CC5)cc34)cc2)CCN1 [Example 77, (R)-3-(4-(3-Methylpiperazin-1-yl)benzamido)-N-(1-phenylcyclopropyl)-1H-indazole-5-carboxamide] | 0.018 | 0.0048
13 | O=C(NCc1cccnc1)c1ccc2[nH]nc(NC(=O)c3ccc(N4CCOCC4)cc3)c2c1 [Example 56, 3-(4-Morpholinobenzamido)-N-(pyridin-3-ylmethyl)-1H-indazole-5-carboxamide 2,2,2-trifluoroacetate] | 0.1 | 0.0033
14 | O=C(NCc1cncs1)c1ccc2[nH]nc(NC(=O)c3ccc(F)cc3)c2c1 [Example 27, 3-(4-Fluorobenzamido)-N-(thiazol-5-ylmethyl)-1H-indazole-5-carboxamide 2,2,2-trifluoroacetate] | 0.36 | 0.2
15 | Cc1cc(CNC(=O)c2ccc3[nH]nc(NC(=O)c4ccc(N5CCN(C)CC5)cc4)c3c2)ccn1 [Example 70, 3-(4-(4-Methylpiperazin-1-yl)benzamido)-N-((2-methylpyridin-4-yl)methyl)-1H-indazole-5-carboxamide] | 1.5 | 0.18
16 | O=C(NCC1CC1)c1ccc2[nH]nc(NC(=O)c3ccc(F)cc3)c2c1 [Example 23, N-(Cyclopropylmethyl)-3-(4-fluorobenzamido)-1H-indazole-5-carboxamide] | 5.58 | 1.41
17 | CN1CCN(c2ccc(C(=O)Nc3n[nH]c4ccc(C(=O)NCc5ccno5)cc34)cc2)CC1 [Example 178, N-(Isoxazol-5-ylmethyl)-3-(4-(4-methylpiperazin-1-yl)benzamido)-1H-indazole-5-carboxamide] | 0.16 | 0.037
18 | CC(NC(=O)c1ccc2[nH]nc(NC(=O)c3ccc(N4CCN(C)CC4)cc3)c2c1)c1cncs1 (stereo not drawn) [Example 83, 3-(4-(4-Methylpiperazin-1-yl)benzamido)-N-(1-(thiazol-5-yl)ethyl)-1H-indazole-5-carboxamide] | 0.047 | 0.011
19 | CCCCNC(=O)c1ccc2[nH]nc(NC(=O)c3ccc(N4CCN(C)CC4)cc3)c2c1 [Example 113, N-Butyl-3-(4-(4-methylpiperazin-1-yl)benzamido)-1H-indazole-5-carboxamide 2,2,2-trifluoroacetate] | 0.18 | 0.018
20 | CCC(NC(=O)c1ccc2[nH]nc(NC(=O)c3ccc(N4CCN(C)CC4)cc3)c2c1)c1cccs1 (stereo not drawn) [Example 55, 3-(4-(4-Methylpiperazin-1-yl)benzamido)-N-(1-(thiophen-2-yl)propyl)-1H-indazole-5-carboxamide] | 0.0027 | 0.00093
21 | CC(C)CCNc1ccc(C(=O)Nc2n[nH]c3ccc(C(=O)NCc4cccs4)cc23)cc1 [Example 159, 3-(4-(Isopentylamino)benzamido)-N-(thiophen-2-ylmethyl)-1H-indazole-5-carboxamide] | 0.31 | 0.033
22 | CN1CCN(c2ccc(C(=O)Nc3n[nH]c4ccc(C(=O)NCc5ccc(Cl)s5)cc34)cc2)CC1 [Example 146, N-((5-chlorothiophen-2-yl)methyl)-3-(4-(4-methylpiperazin-1-yl)benzamido)-1H-indazole-5-carboxamide] | 0.065 | 0.019
23 | O=C(Cc1cccs1)Nc1ccc2[nH]nc(NC(=O)c3ccc(N4CCOCC4)cc3)c2c1 [Example 144, 4-Morpholino-N-(5-(2-(thiophen-2-yl)acetamido)-1H-indazol-3-yl)benzamide] | 0.25 | 0.069
24 | Cc1noc(CNC(=O)c2ccc3[nH]nc(NC(=O)c4ccc(N5CCN(C)CC5)cc4)c3c2)n1 [Example 101, N-((3-Methyl-1,2,4-oxadiazol-5-yl)methyl)-3-(4-(4-methylpiperazin-1-yl)benzamido)-1H-indazole-5-carboxamide 2,2,2-trifluoroacetate] | 0.96 | 0.15
